Like-named read-outs stand apart in the source and are kept apart here.
Test system: HCV replicon RNA-containing Huh7 cells (clone A cells)
Experiment: HCV replicon assay
Type: cell-based
Conditions: read-out: CloneA EC90
Description: HCV replicon assay. HCV replicon RNA-containing Huh7 cells (clone A cells; Apath, LLC, St. Louis, Mo.) were kept at exponential growth in Dulbecco's modified Eagle's medium (high glucose) containing 10% fetal bovine serum, 4 mM L-glutamine and 1 mM sodium pyruvate, 1×nonessential amino acids, and G418 (1,000 μg/m1). Antiviral assays were performed in the same medium without G418. Cells were seeded in a 96-well plate at 1,500 cells per well, and test compounds were added immediately after seeding. Incubation time 4 days. At the end of the incubation step, total cellular RNA was isolated (RNeasy 96 kit; Qiagen). Replicon RNA and an internal control (TaqMan rRNA control reagents; Applied Biosystems) were amplified in a single-step multiplex RT-PCR protocol as recommended by the manufacturer. The HCV primers and probe were designed with Primer Express software (Applied Biosystems) and covered highly conserved 5′-untranslated region (UTR) sequences (sense, 5′-AGCCATGGCGTTAGTA(T)GAGTGT-3′ (SEQ ID NO: 1), and antisense, 5′-TTCCGCAGACCACTATGG-3′ (SEQ ID NO: 2); probe, 5′-FAM-[…]-TAMRA-3′ SEQ ID NO: 3)).
To express the antiviral effectiveness of a compound, the threshold RT-PCR cycle of the test compound was subtracted from the average threshold RT-PCR cycle of the no-drug control (ΔCtHCV). A ΔCt of 3.3 equals a 1-log 10 reduction (equal to the 90% effective concentration [EC90]) in replicon RNA levels. The cytotoxicity of the test compound could also be expressed by calculating the ΔCtrRNA values. The ΔΔCt specificity parameter could then be introduced (ΔCtHCV−ΔCtrRNA) in which the levels of HCV RNA are normalized for the rRNA levels and calibrated against the no-drug control.

[1] = clone A Huh7 replicon cells, incubation time 4 days, replicon RNA by RT-PCR, ΔCt of 3.3 = 1-log 10 reduction = EC90

| Structure (SMILES) | EC90 (Hepatitis C virus, Huh-7, 96 h) | EC90 [1] | also measured |
| --- | --- | --- | --- |
| COc1nc(N)nc2c1ncn2[C@@H]1O[C@H](COP(=O)(N[C@@H](C)C(=O)OC(C)C)Oc2ccccc2)[C@@H](O)[C@@]1(C)F (stereo partly drawn) [Compound 11, (2S)-isopropyl 2-((((2R,3R,4R,5R)-5-(2-amino-6-methoxy-9H-purin-9-yl)-4-fluoro-3-hydroxy-4-methyltetrahydrofuran-2-yl)methoxy) (phenoxy)phosphorylamino)propanoate] | 0.02 µM | – | – |
| COC(=O)[C@H](C)NP(=O)(OC[C@H]1O[C@@H](n2cnc3c(N4CCC4)nc(N)nc32)[C@](C)(F)[C@@H]1O)Oc1ccccc1 (stereo partly drawn) [Compound 12] | – | 0.07 µM | – |
| C[C@H](NP(=O)(OC[C@H]1O[C@@H](n2cnc3c(O)nc(N)nc32)[C@](C)(F)[C@@H]1O)Oc1ccccc1)C(=O)OC1CCCC1 (stereo partly drawn) [Compound 14, (2S)-cyclopentyl 2-((((2R,3R,4R,5R)-5-(2-amino-6-hydroxy-9H-purin-9-yl)-4-fluoro-3-hydroxy-4-methyltetrahydrofuran-2-yl)methoxy)(phenoxy)phosphorylamino)propanoate] | 0.13 µM | – | – |
| COP1(=O)OC[C@H]2O[C@@H](n3cnc4c(N5CCC5)nc(N)nc43)[C@](C)(F)[C@@H]2O1 (stereo partly drawn) [Compound 15, 6-Azetidin-1-yl-9-((4aR,6R,7R,7aR)-7-fluoro-2-methoxy-7-methyl-2-oxo-tetrahydrofuro[3,2-d][1,3,2]dioxaphosphinin-6-yl)-9H-purin-2-ylamine] | 0.71 µM | – | – |
| COc1nc(N)nc2c1ncn2[C@@H]1O[C@@H]2CO[P@](=O)(OC3CCC3)O[C@H]2[C@@]1(C)F [Compound 23, 6-Methoxy-9-((2R,4aR,6R,7R,7aR)-7-fluoro-2-cyclobutoxy-7-methyl-2-oxo-tetrahydro-2λ^5-furo[3,2-d][1,3,2]dioxaphosphinin-6-yl)-9H-purin-2-ylamine] | – | – | EC90 (Hepatitis C virus, Huh-7, 96 h, clone A Huh7 replicon cells, incubation time 4 days, replicon RNA by RT-PCR, ΔCt of 3.3 = 1-log 10 reduction = EC90): 0.13 µM |
| COc1nc(N)nc2c1ncn2[C@@H]1O[C@@H]2CO[P@](=O)(OC3CCCC3)O[C@H]2[C@@]1(C)F [Compound 24, 6-Methoxy-9-((2R,4aR,6R,7R,7aR)-7-fluoro-2-cyclopentoxy-7-methyl-2-oxo-tetrahydro-2μ^5-furo[3,2-d][1,3,2]dioxaphosphinin-6-yl)-9H-purin-2-ylamine] | – | 0.037 µM | – |
